Experimental data taken from patent publication US20180312844A1, “TREATMENT FOR CANCER METASTASIS” (The Board of Regents of the UIniversity of Texas System, priority 2015, published 2018).

What was measured:
melanoma = conditions: at 5 years; 2011 meta-analysis; adjuvant treatment of melanoma; cited from earlier work
[1] = test system: human melanoma cells (M405, M481, UT10) transplanted subcutaneously; test: Growth of primary subcutaneous tumors of patient-derived melanoma xenografts in NSG mice; format: in vivo
Source text: (§1) Melanoma specimens were obtained with informed consent from all patients according to protocols approved by the Institutional Review Boards of the University of Michigan Medical School (IRBMED approvals HUM00050754 and HUM00050085 (Quintana et al., 2012) and the University of Texas Southwestern Medical Center. Unless otherwise indicated, patient-derived xenografts were established by subcutaneously injecting 100 freshly dissociated melanoma cells into the right flanks of NOD/SCID IL2Rγ^null (NSG) mice in 25% high-protein Matrigel, or by injecting intravenously or intrasplenically, depending on the experiment. The subcutaneous tumors were measured every 10 days until any tumor in the mouse cohort reached 2.5 cm in its largest diameter. Mice were monitored daily for signs of distress and euthanized according to a standard body condition score or when their tumors reached 2.5 cm in largest diameter, whichever came first. […] After intravenous and intrasplenic injections mice were imaged every month until the bioluminescence signal was saturated, then mice were euthanized and organs were analyzed visually and by bioluminescence imaging for the presence of micro and macrometastases. […] Reporters of mitochondrial mass, mitochondrial membrane potential, and ROS were used to stain equal numbers of dissociated melanoma cells and analyzed by flow cytometry. […]

[2] = test system: circulating human melanoma cells; test: Frequency of circulating melanoma cells in the blood by flow cytometry; format: in vivo, NSG mice
Source text: as §1

[3] = test system: human melanoma metastases in visceral organs; test: Metastatic disease burden by total bioluminescence signal from visceral organs; format: in vivo, NSG mice
Source text: as §1

## interferon
melanoma
  increase in survival: 3%

## CN(Cc1cnc2nc(N)nc(N)c2n1)c1ccc(C(=O)N[C@@H](CCC(=O)O)C(=O)O)cc1 [Methotrexate]
[1]; low dose methotrexate 1.25 mg/kg/day with thymidine and hypoxanthine, M405, M481, UT10, vs DMSO control, FIG. 5B
  growth of primary subcutaneous tumors: no significant effect
[2]; methotrexate 1.25 mg/kg/day with thymidine and hypoxanthine, M405, M481, UT10, FIG. 5C
  frequency of circulating melanoma cells in the blood: significantly reduced
[3]; methotrexate 1.25 mg/kg/day with thymidine and hypoxanthine, M405, M481, UT10, FIG. 5D
  metastatic disease burden: significantly reduced

## CC(=O)N[C@@H](CS)C(=O)O [NAC, N-acetyl-cysteine]
[1]; NAC 200 mg/kg/day, daily subcutaneous injection, melanomas M405, M481, UT10, vs PBS, FIG. 4A
  growth of primary subcutaneous tumors: In no case did NAC treatment significantly affect
[2]; NAC 200 mg/kg/day s.c., mice transplanted with M405 and UT10, FIG. 4B
  frequency of melanoma cells in the blood: significantly increased
[3]; NAC 200 mg/kg/day s.c., mice transplanted with M405 and M481, FIG. 4C
  metastatic disease burden: significantly increased
